Read-outs that look alike come from different tables or passages of the source.
Assays:
[1] = system: OCIMY5-Vector and OCIMY-CRBN cells; assay: MTT assay in OCIMY5-Vector and OCIMY-CRBN cells; settings: 72 hours
Procedure: Cell viability was assessed by 3-(4,5-dimethylthiazol-2-yl)-2,5-diphenyltetrazolium bromide (MTT) colorimetric assay. […] The data were normalized to the DMSO-treated group. Each experimental condition was performed in triplicate and repeated at least once. Thalidomide was obtained from Sigma, and pomalidomide was obtained from Selleckchem.
(§1) Human CRBN cDNA was obtained from Thermo Scientific and subcloned into a lentiviral expression vector, pCDH-CMV-MCS-EF1-copGFP (System Bioscience). Lentivirus harboring control vector and CRBN cDNA constructs were prepared and used to infect the multiple myeloma (MM) cell line OCIMY5. Infection efficiency was measured by FACScan analysis of GFP expression 3 days after infection. The cells were sorted for GFP expression 14 days after infection.

myeloma cells [2] = assay: MTT assay of dehydroascorbic acid in myeloma cells; type: cell-based, human; settings: high concentrations
Excerpt: (§2) The data were normalized to the DMSO-treated group.

RPMI-8226 cells = assay: MTT assay in RPMI-8226 cells; type: cell-based, human; settings: RPMI-8226, 3 days
Excerpt: as §2

MM.1S cells = assay: MTT assay in MM.1S cells; type: cell-based, human; settings: 3 days
Excerpt: as §2

IKZF1 and IKZF3 [3] = settings: OPM2-NT vs OPM2-shCRBN; H2O2 25 or 50 μM, 3 hours
Excerpt: (§3) Proteins were transferred to polyvinylidene fluoride membranes (Bio-Rad).

IKZF1 and IKZF3 [4] = assay: Western blot of IKZF1 and IKZF3 in OCIMY-5 cells overexpressing CRBN; type: cell-based, human; settings: lenalidomide 10 μM or H2O2 25 or 50 μM, within 3 hours
Procedure: as §3, §1

IKZF1 and IKZF3 [5] = assay: Western blot of IKZF1 and IKZF3 in MM.1S cells; type: cell-based, human; settings: for IKZF1 and IKZF3 degradation: MM.1S cells, 3 hours (lenalidomide 10 μM, H2O2 100 μM, PX12 20 μM)
Excerpt: as §3

IgL-λ dimers = assay: IgL dimerization immunoblot under nonreducing conditions in MM.1S cells; type: cell-based, human; settings: 3 hours, lenalidomide 10 μM or H2O2 25 μM
Excerpt: as §3

[6] = system: Myeloma cell line harboring CRBN or without CRBN; assay: Cell survival of myeloma cell line harboring CRBN or without CRBN treated with cofactors; type: cell-based, human; settings: cofactor alone
Excerpt: as §2

IKZF1 and IKZF3 [7] = assay: Western blot of IKZF1 and IKZF3 in OPM2 cells; type: cell-based, human; settings: PX12 20 μM, within 3 hours
Excerpt: as §3

myeloma cells [8] = assay: Intracellular H2O2 accumulation in myeloma cells; type: cell-based, human
myeloma cells [9] = assay: MTT assay of auranofin in myeloma cells; type: cell-based, human
Excerpt: as §2

thioredoxin reductase = assay: Thioredoxin reductase inhibition
OPM2 cells = assay: Apoptosis assay (Annexin V/propidium iodide FACS) in OPM2 cells; type: cell-based, human; settings: lenalidomide 10 μM pretreatment two days, bortezomib 2.5 nM 2 days
Procedure: Treated cells were harvested and stained for flow cytometry with Annexin V-fluorescein isothiocyanate and propidium iodide (BD Pharmingen). Stained cells were analyzed with a BD LSRII flow cytometer, and the data were analyzed with BD fluorescence-activated cell sorting (FACs) DIVA software.

[10] = system: myeloma cell line harboring CRBN and myeloma cell line without CRBN; assay: Viability of myeloma cell lines with auranofin and bortezomib; type: cell-based, human; settings: bortezomib in combination with auranofin
PARP = PARP cleavage immunoblot in OPM2-NT and OPM2-shCRBN cells; type: cell-based, human; settings: OPM2 CRBN-positive cells; bortezomib 2.5 nM 2 days
Excerpt: as §3

RPMI-8226 myeloma cells = assay: Anti-oxidative capacity by FAD and NAD(P)H autofluorescence flow cytometry; type: cell-based, human; settings: pre-treatment of myeloma cells, then external H2O2
Procedure: HMCLs cells (1 million cells/1 mL PBS) treated or not treated with 100 μM concentration of H2O2 were immediately analyzed for autofluoresnece of FAD (FITC-A channel) and NAD(P)H (UV Blue-A channel) with multicolor flow cytometry (BD LSRFORTESSA). Flowjo histogram normalization was used to overlay untreated versus treated samples.

Horseradish peroxidase = molecular target: T1, Horseradish peroxidase (Armoracia rusticana, UniProt P00433); assay: HRP/Amplex Red in-vitro assay; type: biochemical; settings: 10 μM drug, 5 μM H2O2, 30 minutes
T1 sequence (P00433 31-338 limits assumed): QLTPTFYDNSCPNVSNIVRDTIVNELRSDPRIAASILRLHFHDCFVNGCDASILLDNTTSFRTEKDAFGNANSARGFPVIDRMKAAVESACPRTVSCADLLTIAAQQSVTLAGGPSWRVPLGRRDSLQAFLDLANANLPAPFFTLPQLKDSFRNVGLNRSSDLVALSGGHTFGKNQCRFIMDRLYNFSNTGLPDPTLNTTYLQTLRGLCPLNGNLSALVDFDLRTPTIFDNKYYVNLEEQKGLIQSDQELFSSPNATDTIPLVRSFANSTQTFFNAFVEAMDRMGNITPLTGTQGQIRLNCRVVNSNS
Procedure: (§4) After 30 minutes, plates were read for fluorescence at 530 nm excitation and 590 nm emission with plate reader (Biotek Cytation3). For determining intra-cellular peroxidase activity by Amplex Red, cells were washed and mixed with Amplex Red reagent (50 μM) in HBSS buffer and plated 100,000 cells per well into 96 well plate, four wells for each condition. […] The DMSO control included H2O2 (100 μM). […] After specific time periods, the plates were read for fluorescence intensity using plate reader.

[11] = system: intracellular peroxidases in HMCLs; assay: Intra-cellular peroxidase activity by Amplex Red in HMCLs; type: cell-based, human; settings: for intracellular H2O2 decomposition mediated by peroxidases: different myeloma cell lines, thalidomide 20 μM, lenalidomide 20 μM, pomalidomide 10 μM, 40 to 60 minutes
Procedure: as §4

[12] = OCIMY5-Vector (CRBN deficient) cells
[13] = OCIMY-CRBN (CRBN positive) cells

## O=C([O-])CC([S-])C(=O)[O-].[Au+].[Na+].[Na+] (centres unmarked) [ATM, sodium aurothiomalate]
[1]; [12]
  cell proliferation (MTT): did not inhibit cell proliferation
[1]; [13]
  cell proliferation (MTT): did not inhibit cell proliferation

## O=C1O[C@H]([C@@H](O)CO)C(=O)C1=O [DHA, Dehydroascorbic acid]
Myeloma cells [2]
  myeloma cell proliferation (MTT): inhibited myeloma cell proliferation

## OO [H2O2, hydrogen peroxide]
RPMI-8226 cells
  sensitivity of cell line (MTT): resistant
MM.1S cells
  sensitivity of cell line (MTT): hypersensitive
IKZF1 and IKZF3 [3]
  IKZF1 and IKZF3 degradation: in a CRBN-dependent fashion
IKZF1 and IKZF3 [4]
  IKZF1 and IKZF3 degradation: enhanced IKZF1 and IKZF3 degradation
IKZF1 and IKZF3 [5]
  IKZF1 and IKZF3 degradation: degraded IKZF1 and IKZF3 most effectively
IKZF1 and IKZF3 [5]; MM.1S, 3 hours of treatment
  IKZF1 degradation: prominent
IKZF1 and IKZF3 [5]; MM.1S, exogenous H2O2 50 μM
  time of peak IKZF1 dimerization after treatment: 60 min
IKZF1 and IKZF3 [5]; MM.1S, nonreducing conditions, lenalidomide 10 μM or exogenous H2O2 50 μM
  IKZF1 dimerization: induced IKZF1 dimerization
IgL-λ dimers
  formation of IgL-λ dimers: increased formation of IgL-λ dimers

## NC(=O)C1=CN([C@@H]2O[C@H](COP(=O)(O)OP(=O)(O)OC[C@H]3O[C@@H](n4cnc5c(N)ncnc54)[C@H](O)[C@@H]3O)[C@@H](O)[C@H]2O)C=CC1 [NADH]
[6]
  cell survival: induced cell death

## NC(=O)C1=CN([C@@H]2O[C@H](COP(=O)(O)OP(=O)(O)OC[C@H]3O[C@@H](n4cnc5c(N)ncnc54)[C@H](OP(=O)(O)O)[C@@H]3O)[C@@H](O)[C@H]2O)C=CC1 [NADPH]
[6]
  cell survival: induced cell death

## NC(=O)c1ccc[n+]([C@@H]2O[C@H](COP(=O)([O-])OP(=O)(O)OC[C@H]3O[C@@H](n4cnc5c(N)ncnc54)[C@H](OP(=O)(O)O)[C@@H]3O)[C@@H](O)[C@H]2O)c1 [NADP]
[6]
  cell survival: induced cell death

## NC(=O)c1ccc[n+]([C@@H]2O[C@H](COP(=O)([O-])OP(=O)(O)OC[C@H]3O[C@@H](n4cnc5c(N)ncnc54)[C@H](O)[C@@H]3O)[C@@H](O)[C@H]2O)c1 [NAD]
[6]
  cell survival: induced cell death

## CCC(C)SSc1ncc[nH]1 (centres unmarked) [PX12, 1-methylpropyl 2-imidazolyl disulfide]
[1]; [12]
  cell proliferation (MTT): inhibited cell proliferation
[1]; [13]
  cell proliferation (MTT): inhibited cell proliferation
IKZF1 and IKZF3 [7]
  IKZF1 and IKZF3 degradation: induced IKZF1 and IKZF3 degradation
IKZF1 and IKZF3 [5]
  IKZF1 and IKZF3 degradation: induced IKZF1 and IKZF3 degradation

## CC(=O)OC[C@H]1O[C@@H]([S-])[C@H](OC(C)=O)[C@@H](OC(C)=O)[C@@H]1OC(C)=O.CCP(CC)CC.[Au+] [auranofin]
Myeloma cells [8]
  intracellular H2O2 accumulation: effective at accumulating intracellular H2O2
Myeloma cells [9]
  CRBN dependence of inhibition of cancer cell proliferation: irrespective of CRBN level
  potency in inhibiting cancer cell proliferation, compared with lenalidomide: more potent than lenalidomide
Myeloma cells [9]; myeloma cells
  cancer cell viability (MTT): reducing cancer cell viability
Thioredoxin reductase
  potency in inhibiting thioredoxin reductase, compared with lenalidomide: more potent than lenalidomide

## CC(C)C[C@H](NC(=O)[C@H](Cc1ccccc1)NC(=O)c1cnccn1)B(O)O [bortezomib]
OPM2 cells
  bortezomib-induced apoptosis in cells pretreated with lenalidomide vs not pretreated: increased sensitivity
[10]
  interaction with auranofin (percent viability): synergy
PARP
  bortezomib-induced PARP cleavage after lenalidomide pretreatment: enhanced

## O=C(O)CCCC[C@@H]1CCSS1 [lipoic acid]
RPMI-8226 myeloma cells
  anti-oxidative capacity (FADH2 and NAD(P)H oxidation): decreased myeloma cells anti-oxidative capacity

## NC(=O)CCCCC1CCSS1 (centres unmarked) [lopoamide]
RPMI-8226 myeloma cells
  anti-oxidative capacity (FADH2 and NAD(P)H oxidation): decreased myeloma cells anti-oxidative capacity

## Nc1cccc2c1C(=O)N(C1CCC(=O)NC1=O)C2=O (centres unmarked) [pomalidomide]
Horseradish peroxidase
  decomposition of H2O2 by horseradish peroxidase (Amplex Red to resorufin): inhibited
[11]; FIG. 1C-E and FIG. 2A
  inhibition of intracellular peroxidases compared among IMIDs: more potentially than thalidomide and lenalidomide
[11]
  intracellular H2O2 decomposition mediated by peroxidases: inhibit intracellular H2O2 decomposition

## O=C1CCC(N2C(=O)c3ccccc3C2=O)C(=O)N1 (centres unmarked) [thalidomide]
Horseradish peroxidase
  decomposition of H2O2 by horseradish peroxidase (Amplex Red to resorufin): inhibited
[11]
  intracellular H2O2 decomposition mediated by peroxidases: inhibit intracellular H2O2 decomposition
